The text below walks through data of EPA's ToxRefDB 2.

Where only a bound is given, the exact number is not on record here.

The subject of data set [1] is mouse. The note with it: Prenatal developmental toxicity study, cd1, Oral, Gavage/Intubation, dose end: 14 GD.
Data set [2] relates to rat. As to conditions: Subchronic oral toxicity in rodents, other, Feed, dose end: 90 day, group: systemic.
Data set [3] has as its system mouse. The note with it: Subchronic oral toxicity in rodents, cd1, Feed, dose end: 90 day, group: systemic.
Data set [4] deals with rat. As to conditions: Subchronic oral toxicity in rodents, wistar, Feed, dose end: 90 day, group: systemic, systemic / in life observation / body weight / body weight + systemic / in life observation / food consumption / food consumption + systemic….
The test system of data set [5] is rat. The note with it: Multigenerational reproductive toxicity study, sprague dawley, Oral, Feed, dose end: 2 generation.
Data set [6] relates to rat. As to conditions: Prenatal developmental toxicity study, wistar, Oral, Gavage/Intubation, dose end: 15 GD.
Data set [7] has as its system rat. The note with it: Subchronic oral toxicity in rodents, fischer, Feed, dose end: 13 week, group: systemic.
Data set [8] relates to mouse. The note with it: Carcinogenicity; b6c3f1; Oral; Gavage/Intubation; dose end: 2 year; group: systemic; systemic / in life observation / body weight / body weight + systemic / in life observation / clinical signs / [other] + systemic / in life ….
Data set [9] has as its system rat. As to conditions: Combined chronic toxicity/carcinogenicity; fischer; Oral; Gavage/Intubation; dose end: 2 year; group: systemic; systemic / in life observation / clinical signs / ataxia + systemic / in life observation / clinical signs / prostration + systemic / in ….
Data set [10] deals with rat. The note with it: Prenatal developmental toxicity study; sprague dawley; Oral; Gavage/Intubation; dose end: 15 GD; group: maternal; systemic / in life observation / body weight / body weight gain.
The subject of data set [11] is mouse. The note with it: Subchronic oral toxicity in rodents, b6c3f1, Gavage/Intubation, dose end: 13 week, group: systemic.
For data set [12], the system named is rat. The note with it: Multigenerational reproductive toxicity study, sprague dawley, Oral, Water, dose end: 2 generation, group: parental.
In data set [13] the test system is rat. As to conditions: Subchronic oral toxicity in rodents, fischer, Gavage/Intubation, dose end: 13 week, group: systemic.
The test system of data set [14] is rat. As to conditions: Developmental neurotoxicity study, sprague dawley, Inhalation, Whole-Body, dose end: 2 generation, group: cannot be grouped.
Data set [15] concerns rat. As to conditions: Carcinogenicity; fischer; Oral; Water; dose end: 104 week; group: systemic; systemic / in life observation / water consumption / water consumption.
Data set [16] concerns mouse. As to conditions: Multigenerational reproductive toxicity study, other, Oral, Feed, dose end: 1 generation.
The subject of data set [17] is dog. The note with it: Chronic toxicity; beagle; Oral; Capsule; dose end: 12 month; group: cholinesterase; cholinesterase / cholinesterase / cholinesterase / plasma cholinesterase (che).
The mark [18] stands for this setting: group: developmental, systemic / in life observation / body weight / offspring (pup) weight.
[19] abbreviates: group: maternal, systemic / in life observation / mortality / mortality.
Setting [20] is: systemic / in life observation / food consumption / food consumption.
Setting [21] is: systemic / in life observation / food consumption / food consumption + systemic / in life observation / body weight / body weight + systemic….
[22] abbreviates: systemic / in life observation / body weight / body weight gain + systemic / organ weight / heart / relative to body weight + systemic / ….
Where [23] appears, read: group: offspring, developmental / developmental malformation / testes / delayed descent + developmental / developmental landmark / preputial separation / ….
Setting [24] is: group: parental, systemic / in life observation / body weight / body weight + systemic / organ weight / adrenal gland / relative to body weight + systemic / ….
Setting [25] is: group: reproductive, reproductive / reproductive performance / estrous cycle / periodicity + reproductive / reproductive performance / fertility / fertility.
Setting [26] is: group: developmental, systemic / in life observation / body weight / fetal weight + developmental / developmental malformation / mouth / jaw / cleft palate.
Setting [27] is: group: maternal, reproductive / reproductive performance / postimplantation loss / postimplantation loss + reproductive / reproductive performance / ….
[28] abbreviates: systemic / clinical chemistry / albumin / albumin + systemic / clinical chemistry / triglycerides / triglycerides.
[29] abbreviates: systemic / clinical chemistry / alkaline phosphatase (alp/alk) / alkaline phosphatase (alp/alk) + systemic / clinical chemistry / bile acids….
[30] abbreviates: systemic / organ weight / adrenal gland / absolute + systemic / organ weight / adrenal gland / relative to body weight.
[31] abbreviates: systemic / organ weight / adrenal gland / absolute + systemic / organ weight / adrenal gland / relative to body weight + systemic / in life ….
The mark [32] stands for this setting: systemic / in life observation / body weight / body weight gain + systemic / in life observation / water consumption / water consumption + ….
The mark [33] stands for this setting: systemic / in life observation / clinical signs / tremors + systemic / in life observation / mortality / mortality + systemic / organ weight….
Where [34] appears, read: group: offspring, systemic / in life observation / body weight / litter weight + systemic / in life observation / body weight / offspring (pup) weight + ….
Setting [35] is: group: reproductive, reproductive / reproductive performance / mating / mating + reproductive / reproductive performance / estrous cycle / length + reproductive….

One may read the LOAEL as the lowest dose or exposure tested at which an adverse effect was seen. In general, NOAEL refers to the highest tested level that showed no adverse finding.

For the compound `CCOCCOCCO` [2-(2-Ethoxyethoxy)ethanol], the LEL in data set [1] (setting [18]) stood at 5500 mg/kg/day; in data set [1] (setting [19]), 5500 mg/kg/day; in [2] (setting [20]) it was 250 mg/kg/day; in [3] (systemic / in life observation / body weight / body weight gain + systemic / organ weight / kidney / relative to body weight), 2700 mg/kg/day; in data set [4], 2500 mg/kg/day. The LOAEL was above 5500 mg/kg/day in data set [1] (setting [18]); above 5500 mg/kg/day in [1] (setting [19]); above 2500 mg/kg/day in [2] (setting [21]); above 8100 mg/kg/day in data set [3] (setting [22]); above 2500 mg/kg/day in [4]. For the same compound, the NEL is below 5500 mg/kg/day in data set [1] (setting [18]); below 5500 mg/kg/day in data set [1] (setting [19]); below 250 mg/kg/day in [2] (setting [20]); 900 mg/kg/day in data set [3] (setting [22]); 500 mg/kg/day in [4]. In addition, the NOAEL is at least 5500 mg/kg/day in data set [1] (setting [18]); at least 5500 mg/kg/day in data set [1] (setting [19]); at least 2500 mg/kg/day in data set [2] (setting [21]); at least 8100 mg/kg/day in [3] (setting [22]); at least 2500 mg/kg/day in data set [4].

For `CCCCOC(=O)c1ccccc1C(=O)OCCCC` [Dibutyl phthalate], the LEL in data set [5] (setting [23]) is 531 mg/kg/day; in [5] (group: parental, systemic / organ weight / adrenal gland / relative to body weight) it was 5.35 mg/kg/day; in data set [5] (group: reproductive, reproductive / reproductive performance / estrous cycle / periodicity) it was 95.3 mg/kg/day; in data set [6] (setting [26]), 630 mg/kg/day; in [6] (setting [27]), 630 mg/kg/day; in data set [7] (setting [28]), 125 mg/kg/day. In addition, the LOAEL in data set [5] (setting [23]) was above 531 mg/kg/day; in [5] (setting [24]), above 531 mg/kg/day; in data set [5] (setting [25]) it was above 1020 mg/kg/day; in [6] (group: developmental, systemic / in life observation / body weight / fetal weight), 630 mg/kg/day; in [6] (setting [27]), 630 mg/kg/day; in data set [7] (setting [29]) it was above 2000 mg/kg/day. The NEL in data set [5] (setting [23]) was 51.8 mg/kg/day; in data set [5] (setting [24]) it was 1.61 mg/kg/day; in data set [5] (setting [25]) it was 9.24 mg/kg/day; in data set [6] (setting [26]), 500 mg/kg/day; in data set [6] (setting [27]) it was 500 mg/kg/day; in data set [7] (setting [28]), below 125 mg/kg/day. The NOAEL was at least 531 mg/kg/day in data set [5] (setting [23]); at least 531 mg/kg/day in [5] (setting [24]); at least 1020 mg/kg/day in [5] (setting [25]); 500 mg/kg/day in data set [6] (setting [26]); 500 mg/kg/day in data set [6] (setting [27]); at least 2000 mg/kg/day in data set [7] (setting [29]).

Consider `Oc1cccc(O)c1` [Resorcinol], for which the LEL in [8] is 225 mg/kg/day; in [9] it was 100 mg/kg/day; in data set [10] it was 500 mg/kg/day; in data set [11] (setting [30]) it was 28 mg/kg/day; in data set [12] (systemic / in life observation / water consumption / water consumption), 86 mg/kg/day; in data set [13] (setting [30]) it was 32 mg/kg/day. Moreover, the LOAEL in data set [8] is 225 mg/kg/day; in data set [9], 100 mg/kg/day; in data set [10], above 500 mg/kg/day; in [11] (setting [31]) it was above 420 mg/kg/day; in data set [12] (setting [32]) it was above 233 mg/kg/day; in data set [13] (setting [33]) it was above 520 mg/kg/day. For the same compound, the NEL was 112 mg/kg/day in data set [8]; 50 mg/kg/day in data set [9]; 250 mg/kg/day in data set [10]; below 28 mg/kg/day in [11] (setting [30]); 31 mg/kg/day in data set [12] (setting [32]); below 32 mg/kg/day in [13] (setting [30]). The NOAEL in data set [8] is 112 mg/kg/day; in data set [9], 50 mg/kg/day; in data set [10] it was at least 500 mg/kg/day; in [11] (setting [31]) it was at least 420 mg/kg/day; in [12] (setting [32]), at least 233 mg/kg/day; in data set [13] (setting [33]) it was at least 520 mg/kg/day.

In the case of `C=Cc1ccccc1` [Styrene], in [14] (systemic / in life observation / body weight / body weight gain + systemic / in life observation / body weight / offspring (pup) weight), the LEL was determined as 150 ppm. For the same compound, the NEL in data set [14] (systemic / in life observation / body weight / body weight gain + systemic / in life observation / water consumption / water consumption) is 50 ppm. In [14] (setting [32]), the LOAEL is above 500 ppm and the NOAEL is at least 500 ppm.

In data set [15], `O=C(OC[C@H]1O[C@@H](OC(=O)c2cc(O)c(O)c(OC(=O)c3cc(O)c(O)c(O)c3)c2)[C@H](OC(=O)c2cc(O)c(O)c(OC(=O)c3cc(O)c(O)c(O)c3)c2)[C@@H](OC(=O)c2cc(O)c(O)c(OC(=O)c3cc(O)c(O)c(O)c3)c2)[C@@H]1OC(=O)c1cc(O)c(O)c(OC(=O)c2cc(O)c(O)c(O)c2)c1)c1cc(O)c(O)c(OC(=O)c2cc(O)c(O)c(O)c2)c1` [Tannic acid] yielded an LEL of 131 mg/kg/day, an LOAEL above 243 mg/kg/day, an NEL below 131 mg/kg/day and an NOAEL of at least 243 mg/kg/day. For the same compound, in data set [16] (setting [34]), the LEL amounted to 12000 mg/kg/day, the LOAEL was above 12000 mg/kg/day, the NEL was below 12000 mg/kg/day and the NOAEL was at least 12000 mg/kg/day. Further, in [16] (setting [35]), the LEL amounted to 12000 mg/kg/day, the lowest observed adverse effect level (LOAEL) is above 12000 mg/kg/day, the NEL was below 12000 mg/kg/day and the NOAEL was at least 12000 mg/kg/day.

In data set [17], `CCOP(=S)(OCC)SCSC(C)(C)C` [Terbufos] gave an LEL of 0.015 mg/kg/day, an LOAEL of 0.015 mg/kg/day, an NEL below 0.015 mg/kg/day and an NOAEL below 0.015 mg/kg/day.
